The values below come from patent publication US9643982B2, “Fused tricyclic heterocyclic compounds as HIV integrase inhibitors” (Merck Sharp & Dohme Corp., priority 2013, dated 2017).

pEC50: −log10 of the molar value.

The first experiment concerns HIV-1 (NL4-3 strain). As to the kind of experiment: Multiple round HIV-1 infection assay in MT4-GFP cells (Wild Type Cell Assay). Format: cell-based. The note with it: Human immunodeficiency virus 1, NL43; 0 % NHS (serum-free); MT4-GFP cells infected with HIV-1 NL4-3; read-out: Wild Type Cell Assay IP. How it is done: HIV-1 replication was monitored using MT4-gag-GFP clone D3 (hereafter designate MT4-GFP), which are MT-4 cells modified to harbor a GFP reporter gene, the expression of which is dependent on the HIV-1 expressed proteins tat and rev. Productive infection of an MT4-GFP cell with HIV-1 results in GFP expression approximately 24 h post-infection.
MT4-GFP cells were maintained at 37° C./5% CO2/90% relative humidity in RPMI 1640 supplemented with 10% fetal bovine serum, 100 U/ml penicillin/streptomycin, and 400 μg/ml G418 to maintain the reporter gene. For infections, MT4-GFP cells were placed in the same medium lacking G418 and infected overnight with HIV-1 (NL4-3 strain) virus at an approximate multiplicity of infection of 0.01 in the same incubation conditions.
Cells were then washed and resuspended in either RPMI 1640 supplemented with 10% normal human serum (NHS) or without NHS at 1.6×10^5 cells/mL (10% NHS or serum-free conditions) or in 100% normal human serum at 2×10^5 cells/mL (100% NHS conditions). Compound plates were prepared by dispensing compounds dissolved in DMSO into wells of 384 well poly D lysine-coated plates (0.2 μl/well) using an ECHO acoustic dispenser. Each compound was tested in a 10 point serial 3-fold dilution (typical final concentrations: 8.4 μM-0.42 nM). Controls included no inhibitor (DMSO only) and a combination of three antiviral agents (efavirenz, indinavir, and the integrase strand transfer inhibitor L-002254051 at final concentrations of 4 μM each). Cells were added (50 μL/well) to compound plates and the infected cells were maintained at 37° C./5% CO2/90% relative humidity.
Take `CN1CC2COCc3c(C(=O)NCc4ccc(F)cc4F)c(=O)c(O)c(n32)C1=O` (racemic) [Compound 1]: the pEC50 is 8.04.
Consider `COCCN1CC2COCc3c(C(=O)NCc4ccc(F)cc4F)c(=O)c(O)c(n32)C1=O` (racemic) [Compound 5], for which the pEC50 is 8.04.
Take `O=C(NCc1ccc(F)cc1F)c1c2n3c(c(O)c1=O)C(=O)N(Cc1cccnc1)CC3COC2` (racemic) [Compound 7]: the pEC50 was 8.02.
Same read-out and setting: the figure for `COc1ccc(CN2CC3COCc4c(C(=O)NCc5ccc(F)cc5F)c(=O)c(O)c(n43)C2=O)cc1` (racemic) [Compound 8] is 7.64; for `CC(C)N1CC2COCc3c(-c4cnn(Cc5ccc(F)cc5F)c4)c(=O)c(O)c(n32)C1=O` (racemic) [Compound 14] it is 6.49; for `CC(C)N1CC2C(=O)N(C)Cc3c(C(=O)NCc4ccc(F)cc4F)c(=O)c(O)c(n32)C1=O` (racemic) [Compound 16, N-(2,4-difluorobenzyl)-9-hydroxy-2-isopropyl-5-methyl-1,4,8-trioxo-1,2,3,3a,4,5,6,8-octahydro-2,3a1,5-triazaphenalene-7-carboxamide] it is 7.77.
For the compound `CNC(=O)c1c2n3c(c(O)c1=O)C(=O)N(Cc1ccc(F)cc1)CC3CC2` (racemic) [Compound 17, 2-(4-fluorobenzyl)-8-hydroxy-N-methyl-1,7-dioxo-2,3,3a,4,5,7-hexahydro-1H-pyrazino[2,1,6-cd]indolizine-6-carboxamide], the pEC50 is 7.46.
In the case of `CCN1CC2CCc3c(C(=O)NCc4ccc(F)cc4F)c(=O)c(O)c(n32)C1=O` (racemic) [Compound 18, N-(2,4-difluorobenzyl)-2-ethyl-8-hydroxy-1,7-dioxo-2,3,3a,4,5,7-hexahydro-1H-pyrazino[2,1,6-cd]indolizine-6-carboxamide], the pEC50 is 8.59.
For `COCCN1CC2CCc3c(C(=O)NCc4c(F)cc(F)cc4OC)c(=O)c(O)c(n32)C1=O` (racemic) [Compound 19], the pEC50 was 8.36.
Consider `CCN1CC2CC(O)c3c(C(=O)NCc4ccc(F)cc4F)c(=O)c(O)c(n32)C1=O` (racemic) [Compound 24, N-(2,4-difluorobenzyl)-2-ethyl-5,8-dihydroxy-1,7-dioxo-2,3,3a,4,5,7-hexahydro-1H-pyrazino[2,1,6-cd]indolizine-6-carboxamide], for which the pEC50 was 8.66.
The same measure, in the same setting: for `CCN1C(=O)c2c(O)c(=O)c(C(=O)NCc3ccc(F)cc3F)c3n2C(CC3)C1OC` (racemic) [Compound 25] the value was 8.72.
In the case of `CCN1CC2CC(OC)c3c(C(=O)NCc4ccc(F)cc4F)c(=O)c(O)c(n32)C1=O` (racemic) [Compound 29], the pEC50 was 8.92.
Consider `CC(C)N1C[C@@H]2COCc3c(C(=O)NCc4ccc(F)cc4F)c(=O)c(O)c(n32)C1=O` (single isomer, unassigned) [Compound 3], for which the pEC50 was 7.89.
Turning to `CC(C)N1C[C@@H]2COCc3c(-c4nnc(Cc5ccc(F)cc5F)s4)c(=O)c(O)c(n32)C1=O` (single isomer, unassigned) [Compound 13, 9-(5-(2,4-difluorobenzyl)-1,3,4-thiadiazol-2-yl)-7-hydroxy-5-isopropyl-3,3a,4,5-tetrahydro-1H-2-oxa-3a1,5-diazaphenalene-6,8-dione], the pEC50 was 8.30.
For the compound `CC(C)N1C[C@@H]2COCc3c(-c4cnn(Cc5ccc(F)cc5F)c4)c(=O)c(O)c(n32)C1=O` (single isomer, unassigned) [Compound 15], the pEC50 was 6.63.
On to `O=C(NCc1ccc(F)cc1F)c1c2n3c(c(O)c1=O)C(=O)N(CCC(F)(F)F)C[C@@H]3CC2` (single isomer, unassigned) [Compound 20], for which the pEC50 was 8.42.
On the same count and under the same terms, for `O=C(NCc1ccc(F)c(F)c1F)c1c2n3c(c(O)c1=O)C(=O)N(CC1CC1)C[C@H]3CC2` (single isomer, unassigned) [Compound 21] the value was 8.51; for `CO[C@H](C)CN1C[C@H]2CCc3c(C(=O)NCc4ccc(F)cc4F)c(=O)c(O)c(n32)C1=O` (single isomer, unassigned) [Compound 22], 8.55.
On the same count and under the same terms, for `CC(C)(O)CN1C[C@@H]2CCc3c(C(=O)NCc4ccc(F)c(F)c4F)c(=O)c(O)c(n32)C1=O` (single isomer, unassigned) [Compound 23] the value was 8.42.
Take `CCN1C(=O)c2c(O)c(=O)c(C(=O)NCc3ccc(F)c(Cl)c3)c3n2[C@@H](CC3)[C@H]1OC` (single isomer, unassigned) [Compound 26]: the pEC50 is 8.49.
On the same count and under the same terms, for `COCCN1C(=O)c2c(O)c(=O)c(C(=O)NCc3ccc(F)cc3F)c3n2[C@H](CC3)[C@@H]1OC` (single isomer, unassigned) [Compound 27] the value was 8.64.
On the same count and under the same terms, the figure for `CCO[C@H]1[C@H]2CCc3c(C(=O)NCc4ccc(F)cc4F)c(=O)c(O)c(n32)C(=O)N1CC` (single isomer, unassigned) [Compound 28] is 8.68.
In the case of `CCN1C[C@@H]2C[C@@H](OC)c3c(C(=O)NCc4ccc(F)cc4F)c(=O)c(O)c(n32)C1=O` (single isomer, unassigned) [Compound 30], the pEC50 was 9.00.
As to `CCN1C[C@H]2C[C@@H](OC)c3c(C(=O)NCc4ccc(F)cc4F)c(=O)c(O)c(n32)C1=O` (single isomer, unassigned) [Compound 31], the pEC50 is 8.42.
As for `COCCN1C[C@H]2C[C@H](OC)c3c(C(=O)NCc4ccc(F)cc4F)c(=O)c(O)c(n32)C1=O` (single isomer, unassigned) [Compound 32], the pEC50 was 8.64.
Same read-out and setting: the figure for `CO[C@@H]1C[C@H]2CN(CC3CC3)C(=O)c3c(O)c(=O)c(C(=O)NCc4ccc(F)cc4F)c1n32` (single isomer, unassigned) [Compound 33] is 8.64.
Regarding `CCN1C[C@@H]2C[C@@H](OC)c3c(C(=O)NCc4ccc(F)c(Cl)c4F)c(=O)c(O)c(n32)C1=O` (single isomer, unassigned) [Compound 34], the pEC50 was 8.54.
Still for that read-out and setting: the figure for `CCN1CC2CC(C)c3c(C(=O)NCc4ccc(F)cc4F)c(=O)c(O)c(n32)C1=O` (single isomer, unassigned) [Compound 35, N-(2,4-difluorobenzyl)-2-ethyl-9-hydroxy-6-methyl-1,8-dioxo-2,3,3a,5,6,8-hexahydro-1H-pyrazino[2,1,6-cd]indolizine-7-carboxamide] is 8.92.
As to `COCCN1CC2CC(C)c3c(C(=O)NCc4ccc(F)cc4F)c(=O)c(O)c(n32)C1=O` (single isomer, unassigned) [Compound 36], the pEC50 is 8.41.
Consider `CCN1CC2CC(C)c3c(C(=O)NCc4ccc(F)c(F)c4F)c(=O)c(O)c(n32)C1=O` (single isomer, unassigned) [Compound 37], for which the pEC50 is 8.96.
Take `CCO[C@@H]1C[C@H]2CN(CC)C(=O)c3c(O)c(=O)c(C(=O)NCc4ccc(F)cc4F)c1n32` (single isomer, unassigned) [Compound 38]: the pEC50 is 8.72.
In the case of `COCCC(C)N1CC2COCc3c(C(=O)NCc4ccc(F)cc4F)c(=O)c(O)c(n32)C1=O` (centres unmarked) [Compound 6], the pEC50 was 7.62.

Staying with this experiment, now noted: Human immunodeficiency virus 1, NL43; 10 % NHS (normal human serum); MT4-GFP cells infected with HIV-1 NL4-3; read-out: Wild Type Cell Assay IP.
Regarding `CC(C)N1CC2COCc3c(C(=O)NCc4ccc(F)cc4F)c(=O)c(O)c(n32)C1=O` (racemic) [Compound 2], the pEC50 is 7.48.
For the compound `CC(C)CN1CC2COCc3c(C(=O)NCc4ccc(F)cc4F)c(=O)c(O)c(n32)C1=O` (racemic) [Compound 4], the pEC50 is 7.68.
Take `CC(C)N1CC2COCc3c(C(=O)NCc4ccc(F)c(Cl)c4)c(=O)c(O)c(n32)C1=O` (racemic) [Compound 10]: the pEC50 is 7.00.
Take `Cc1c(F)ccc(CNC(=O)c2c3n4c(c(O)c2=O)C(=O)N(C(C)C)CC4COC3)c1F` (racemic) [Compound 11]: the pEC50 was 6.94.
`CC(C)N1CC2COCc3c(C(=O)NCc4ccc(F)c(Cl)c4F)c(=O)c(O)c(n32)C1=O` (racemic) [Compound 12]: the pEC50 is 7.30.
As for `CC(C)N1C[C@@H]2COCc3c(C(=O)NCc4ccc(F)c(F)c4F)c(=O)c(O)c(n32)C1=O` (single isomer, unassigned) [Compound 9], the pEC50 was 7.70.
